Experimental data from patent US6087355A, “Cephalosporin antibiotics” (Microcide Pharmaceuticals, Inc., priority 1996, dated 2000).
Where a name gives a salt, the structure may show the parent alone.

Experiments:
Test in all cases: In vitro MIC, agar dilution
Format in all cases: cell-based
[1] = tested on: S. aureus PC1(Meth^S)(lac^+); details: Staphylococcus aureus, read-out: minimum inhibitory concentration (MIC)
Experimental: (§1) The compounds of the invention were evaluated against several β-lactamresistant (for example methicillin-resistant, vancomycin resistant, and/or ampicillin-resistant) bacteria strains by determining the minimum inhibitory concentration (MIC, μg/ml) of each compound with respect to each strain. The MIC, the lowest concentration of antibiotic which inhibits growth of the test organism, was determined by the agar dilution method.
(§2) To determine the MIC for bacterial isolates, the test compound was incorporated in a series of two-fold dilutions into liquified Mueller-Hinton agar. Upon solidification, a number of different bacterial strains were spot inoculated with a replicating device onto the agar surface.
(§3) Aliquots of antimicrobial agents were prepared in phosphate buffered saline (PBS) at pH 7.2. Tween 20 or DMSO was used as a solubilizing vehicle as needed. Standard methods of vortexing, sonicating and gentle heat were used to facilitate solubilizing the test agent. […] A 1.28 mg/mL stock solution was used with a subsequent highest working concentration of 128 μg/mL. Serial two-fold dilutions were done through ≤0.25 μg/mL. Each drug level was tested in duplicate. Two-fold drug dilutions were done in sterile 50 mL tubes with a final drug volume of 5 mL. Upon the addition of 45 mL of molten agar, a 10-fold dilution resulted. Two, 25 mL. plates were then poured into 15×150 mm square Petri plates with grids and allowed to harden.
(§4) A control plate with a reference drug, either cefotaxime, vancomycin or imipenem, was used as the positive growth control. Stock concentrations of reference antibiotics were prepared and frozen at -80° C. […] All test plates were used within 24 hours of preparation.
(§5) Satisfactory results were obtained where the inoculum contained about 10^4 colony forming units (cfu)±0.5 logs. Starting with pure cultures of the test isolates on agar plates, a few isolated colonies were transferred to a tube of nutrient broth and allowed to grow 4-6 hours at 35-36° C. to reach log-phase growth. Dropwise addition of the broth culture to PBS was done to match a 0.5 McFarland turbidity standard equal to 10^8 cfu/mL. This was further diluted ten-fold in PBS to reach a working inoculum concentration of 10^7 cfu/mL. When 1 μL of the working inoculum was applied to the agar surface a concentration of about 10^4 cfu per spot was obtained.
(§6) Disposable sterile 1 μL loops were used to inoculate test plates, with each isolate in a designated grid on the agar plate. An alternate method of inoculation involved the use of a replica plater, a device with 48 steel pins allowing the simultaneous inoculation of multiple isolates. After the spots had dried, the plates were incubated at 35-36° C. for 16-20 hours. Endpoints were assessed as the minimum inhibitory concentration (MIC) of antimicrobial agent.

[2] = tested on: S. aureus ATCC 13709(Meth^S); details: Staphylococcus aureus, ATCC13709, S. aureus ATCC 13709(Meth^S); read-out: minimum inhibitory concentration (MIC)
Experimental: as §1, §2, §3, §4, §5, §6

E. faecalis VanB(Van^R) = details: Enterococcus faecalis, read-out: minimum inhibitory concentration (MIC)
Experimental: as §1, §2, §3, §4, §5, §6

E. coli ATCC 25992 = details: Escherichia coli, ATCC25992, read-out: minimum inhibitory concentration (MIC)
Experimental: as §1, §2, §3, §4, §5, §6

[3] = tested on: S. aureus ATCC 33593(Meth^R); details: Staphylococcus aureus, ATCC33593, read-out: minimum inhibitory concentration (MIC)
Experimental: as §1, §2, §3, §4, §5, §6

P. aeruginosa ATCC 27853 = details: Pseudomonas aeruginosa, ATCC27853, read-out: minimum inhibitory concentration (MIC)
Experimental: as §1, §2, §3, §4, §5, §6

[4] = tested on: S. aureus Spain #356(Meth^R); details: Staphylococcus aureus, read-out: minimum inhibitory concentration (MIC)
Experimental: as §1, §2, §3, §4, §5, §6

E. faecium A491(Amp^R) = details: Enterococcus faecium, read-out: minimum inhibitory concentration (MIC)
Experimental: as §1, §2, §3, §4, §5, §6

E. faecalis ATCC 29212 = details: Enterococcus faecalis, ATCC29212, read-out: minimum inhibitory concentration (MIC)
Experimental: as §1, §2, §3, §4, §5, §6

[5] = tested on: S. haemolyticus 05(Meth^R); details: Staphylococcus haemolyticus, read-out: minimum inhibitory concentration (MIC)
Experimental: as §1, §2, §3, §4, §5, §6

[6] = tested on: S. aureus 76(Meth^R)(lac^+); details: Staphylococcus aureus, read-out: minimum inhibitory concentration (MIC)
Experimental: as §1, §2, §3, §4, §5, §6

E. faecium ATCC 35667 = details: Enterococcus faecium, ATCC35667, read-out: minimum inhibitory concentration (MIC)
Experimental: as §1, §2, §3, §4, §5, §6

E. faecium VanA(Van^R) = details: Enterococcus faecium, read-out: minimum inhibitory concentration (MIC)
Experimental: as §1, §2, §3, §4, §5, §6

S. aureus ATCC 29213 = details: Staphylococcus aureus, ATCC29213, read-out: minimum inhibitory concentration (MIC)
Experimental: as §1, §2, §3, §4, §5, §6

[7] = tested on: S. aureus Col(Meth^R)(lac^-); details: Staphylococcus aureus, read-out: minimum inhibitory concentration (MIC)
Experimental: as §1, §2, §3, §4, §5, §6
The S. aureus Col strain is a high-level PBP2a producer, whereas S. aureus Col 8A, its isogenic partner, lacks PBP2a.

SMILES	MIC [1] [µg/mL]	MIC [2] [µg/mL]	MIC (E. faecalis VanB(Van^R)) [µg/mL]	MIC (E. coli ATCC 25992) [µg/mL]	MIC [3] [µg/mL]	MIC (P. aeruginosa ATCC 27853) [µg/mL]	MIC [4] [µg/mL]	MIC (E. faecium A491(Amp^R)) [µg/mL]	MIC (E. faecalis ATCC 29212) [µg/mL]	MIC [5] [µg/mL]	MIC [6] [µg/mL]	MIC (E. faecium ATCC 35667) [µg/mL]	MIC (E. faecium VanA(Van^R)) [µg/mL]	MIC (S. aureus ATCC 29213) [µg/mL]	MIC [7] [µg/mL]
N=C(N)SCc1nnsc1SC1=C(C(=O)O)N2C(=O)[C@@H](NC(=O)/C(=N\O)c3csc(N)n3)[C@H]2SC1 [Cmpd 4, (7R)-7-[(Z)-2-(aminothiazol-4-yl)-2-(hydroxyimino)acetamido]-3-(4-isothioureidomethyl-1,2,3-thiadiazol-5-ylthio)-3-cephem-4-carboxylate, trifluoroacetic acid salt]	0.25	0.25	4	4	4	> 32	8	> 32	0.5	8	8	2	4	0.25	8
N=C(N)SCc1cnccc1SC1=C(C(=O)O)N2C(=O)[C@@H](NC(=O)/C(=N\OC3CCCC3)c3csc(N)n3)[C@H]2SC1 [Cmpd 8, (7R)-7-[(Z)-2-(aminothiazol-4-yl)-2-(cyclopentyloxyimino)acetamido]-3-(3-isothioureidomethylpyrid-4-ylthio)-3-cephem-4-carboxylate, trifluoroacetic acid salt]	1	1	0.5	2	4	> 32	4	32	0.5	4	4	2	8	1	2
NCCSCc1cnccc1SC1=C(C(=O)O)N2C(=O)[C@@H](NC(=O)/C(=N\OC3CCCC3)c3csc(N)n3)[C@H]2SC1 [Cmpd 13, (7R)-7-[(Z)-2-(aminothiazol-4-yl)-2-(cyclopentyloxyimino)acetamido]-3-(3-aminoethylthiomethylpyrid-4-ylthio)-3-cephem-4-carboxylate, trifluoroacetic acid salt]	2	2	2	8	8	> 32	8	> 32	1	8	8	4	8	2	4
